Results on one molecule are retold here after US11291656B2, “Pramipexole transdermal delivery system and uses thereof” (TRANSWELL BIOTECH CO., LTD., priority 2016, dated 2022).

≈ marks a conversion by molar mass, not a printed value. Like-named read-outs stand apart in the source and are kept apart here.

Data set [1] in a line: physchem. As for the experimental part:
Numerous permeation enhancers were evaluated to identify suitable permeation enhancers, including permeation enhancers listed in Table 4 below that lists solubility of pramipexole in the respective permeation enhancers.

For `CCCN[C@H]1CCc2nc(N)sc2C1` [Pramipexole], the API solubility result by setting is: (in adhesive DURO-TAK 87-2054 (acrylate-vinylacetate, —COOH)) “adequate solubility”; (in adhesive DURO-TAK 87-2054 (acrylate-vinylacetate, —COOH), listed as API) 10%; (in adhesive DURO-TAK 87-2510 (Acrylic, —OH)) “adequate solubility”; (in adhesive DURO-TAK 87-2510 (Acrylic, —OH), listed as API) 5%; (in adhesive DURO-TAK 87-2979 (acrylate-vinylacetate, —COOOH/—OH)) “adequate solubility”; (in adhesive DURO-TAK 87-2979 (acrylate-vinylacetate, —COOOH/—OH), listed as API) 10%. Also, the API solubility result is, setting by setting: (in adhesive DURO-TAK 87-4287 (acrylate-vinylacetate, —OH)) “adequate solubility”; (in adhesive DURO-TAK 87-4287 (acrylate-vinylacetate, —OH), listed as API) 8%. Further, the solubility worked out at 111 mg/mL (≈ 526 mM) in data set [1] (Brij 30, organic solvent or mixture); 122 mg/mL (≈ 577 mM) in data set [1] (Transcutal P, organic solvent or mixture); 86.1 mg/mL (≈ 407 mM) in data set [1] (Tween 80, organic solvent or mixture); 34.3 mg/mL (≈ 162 mM) in data set [1] (ethyl acetate, organic solvent or mixture); 107 mg/mL (≈ 505 mM) in data set [1] (isopropyl alcohol, organic solvent or mixture); 5.34 mg/mL (≈ 25.3 mM) in data set [1] (limonene, organic solvent or mixture). For the same molecule, the solubility amounted to 100 mg/mL (≈ 474 mM) in data set [1] (methanol, organic solvent or mixture); 7.07 mg/mL (≈ 33.5 mM) in data set [1] (methyl laurate, oil or lipid); 113 mg/mL (≈ 535 mM) in data set [1] (octanol, organic solvent or mixture); 59 mg/mL (≈ 279 mM) in data set [1] (oleic acid, oil or lipid); 113 mg/mL (≈ 535 mM) in data set [1] (oleyl alcohol, oil or lipid); 55.6 mg/mL (≈ 263 mM) in data set [1] (propylene glycol (PG), organic solvent or mixture).
